Here are results for 16 compounds from patent publication US20250170147A1, “NEUROACTIVE STEROIDS FOR TREATMENT OF GASTROINTESTINAL DISEASES OR CONDITIONS” (Sage Therapeutics, Inc., priority 2022, published 2025).

“Also recorded” adds a separate entry of the source. Marks after values point to notes of the source that are not given here.

Data set [1] has as its system patients with major depressive disorder. The following applies: meta-analysis, cited from earlier work; for rates of gastrointestinal adverse reactions compared to placebo: 15 most commonly used antidepressants in MDD; for tolerability on the gastrointestinal tract among antidepressants: patients with MDD.
For data set [2] the following is noted: clinical trials; meta-analysis; cited from earlier work.
For data set [3], the system named is adults with MDD. Nature of the data set: Study NCT04476030: withdrawal symptoms by Physician Withdrawal Checklist (PWC-20). The format is in vivo, human. The procedure: (§1) A randomized, double-blind, parallel-group, active/placebo-controlled study (NCT04476030) in participants with major depressive disorder (MDD) was conducted. The study evaluated the efficacy and safety of zuranolone 50 mg co-initiated with standard-of-care (SOC) antidepressant therapies (ADTs) (zuranolone+ADT) vs placebo co-initiated with SOC ADT (placebo+ADT) in adults with MDD. Patients were randomized 1:1 to once-daily, blinded zuranolone+ADT or placebo+ADT for 14 days then continued open-label SOC ADT for 28 more days.
(§2) The proportion of patients who had suicidal ideation at any post baseline visit from Day 3 through Day 42 ranged from 4.8% to 11.7% in the zuranolone+ADT group and from 6.0% to 12.4% in the placebo+ADT group. No patients who received placebo+ADT experienced suicidal behavior.

The test system of data set [4] is adults with MDD. Nature of the data set: Study NCT04476030: suicidal ideation/behavior by C-SSRS. It is filed as in vivo, human. Conditions: compared to baseline. How it is done: as §1, §2
For data set [5], the system named is adults with MDD. The data set is described as follows: Study NCT04476030: treatment-emergent adverse events (safety set). The format is in vivo, human. Conditions: for tolerability: zuranolone 50 mg once daily 14 days co-initiated with SOC ADT. How it is done: as §1
An AE could therefore be any unfavorable and unintended sign (including an abnormal laboratory finding), symptom or disease temporally associated with the use of a medicinal (investigational) product whether or not related to the medicinal (investigational) product. In clinical studies, an AE could include an undesirable medical condition occurring at any time, including baseline or washout periods, even if no study treatment had been administered.
A treatment emergent adverse event (TEAE) was defined as an AE with onset after the start of investigational product (IP), or any worsening of a pre-existing medical condition/AE with onset after the start of IP and throughout the study. The term IP included any Sage IP, a comparator, or a placebo administered in a clinical study.
The investigator made the determination of relationship to the IP for each AE (not related, related). The following definitions should have been considered when evaluating the relationship of AEs and SAEs to the IP.

Where [6] appears, read: ADT continuation period, of 212.
Where [7] appears, read: double blinded treatment period.
Where [8] appears, read: double blinded treatment period, of 212.
[9] abbreviates: safety set n=212, listed as zuranolone+ADT.
Setting [10] is: zuranolone 50 mg + ADT, safety set n=212, whole study.

For `COc1ccc2cccc(CCNC(C)=O)c2c1` [agomelatine], in data set [1], the “rates of gastrointestinal adverse reactions compared to placebo” value (shortened to “rates … compared to placebo”) is recorded as “higher rates”.

On to `CC(NC(C)(C)C)C(=O)c1cccc(Cl)c1` (stereo not shown) [bupropion], for which the “rates … compared to placebo” value in data set [1] is given as “higher rates”.

Consider `CN(C)CCCC1(c2ccc(F)cc2)OCc2cc(C#N)ccc21` (stereo not shown) [citalopram], for which the “rates … compared to placebo” value in data set [1] is “higher rates”.

For `CN(C)CC(c1ccc(O)cc1)C1(O)CCCCC1` (stereo not shown) [desvenlafaxine], in data set [1], the “rates … compared to placebo” value is “higher rates”.

On to `CNCC[C@H](Oc1cccc2ccccc12)c1cccs1` [duloxetine], for which, in data set [1], the “rates … compared to placebo” value is reported as “higher rates”.

In the case of `CN(C)CCC[C@@]1(c2ccc(F)cc2)OCc2cc(C#N)ccc21` [escitalopram], in data set [1], the “rates … compared to placebo” value is listed as “higher rates” and the “tolerability on the gastrointestinal tract among antidepressants” value is reported as “least tolerated”.

`CNCCC(Oc1ccc(C(F)(F)F)cc1)c1ccccc1` (stereo not shown) [fluoxetine]: in data set [1], the “rates … compared to placebo” value is “higher rates”.

Consider `COCCCC/C(=N\OCCN)c1ccc(C(F)(F)F)cc1` [fluvoxamine], for which, in data set [1], the “rates … compared to placebo” value is on record as “higher rates”.

With `CCN(CC)C(=O)[C@@]1(c2ccccc2)C[C@H]1CN` [levomilnacipran], the “rates … compared to placebo” value in data set [1] is “higher rates”.

For `CN1CCN2c3ncccc3Cc3ccccc3C2C1` (stereo not shown) [mirtazapine], the “rates … compared to placebo” value in data set [1] is recorded as “higher rates”.

Regarding `Fc1ccc([C@@H]2CCNC[C@H]2COc2ccc3c(c2)OCO3)cc1` [paroxetine], the “rates … compared to placebo” value in data set [1] is recorded as “higher rates”.

Turning to `CCOc1ccccc1OC(c1ccccc1)C1CNCCO1` (stereo not shown) [reboxetine], the “rates … compared to placebo” value in data set [1] is recorded as “higher rates”.

Turning to `CN[C@H]1CC[C@@H](c2ccc(Cl)c(Cl)c2)c2ccccc21` [sertraline], in data set [2], the “incidence of diarrhea compared to other SSRIs and venlafaxine” value is “higher incidence of diarrhea”. In data set [1], the “rates … compared to placebo” value is “higher rates” and the “tolerability on the gastrointestinal tract among antidepressants” value is “least tolerated”.

For the compound `COc1ccc(C(CN(C)C)C2(O)CCCCC2)cc1` (stereo not shown) [venlafaxine], the “rates of nausea and vomiting compared to SSRIs and duloxetine” value in data set [2] was “higher rates of nausea and vomiting”. Besides, the “rates … compared to placebo” value in data set [1] is recorded as “higher rates”.

For `Cc1ccc(Sc2ccccc2N2CCNCC2)c(C)c1` [vortioxetine], the “rates … compared to placebo” value in data set [1] is listed as “higher rates”.

In the case of zuranolone [Zuranolone + ADT], in the data set with adults with MDD [3] (Day 18), the “mean decrease from baseline in PWC-20 total score” value is listed as −0.6. For the same compound, the “mean decrease from baseline in PWC-20 total score” value in the data set on adults with MDD [3] (Day 21) was −0.8. Moreover, the “withdrawal symptoms (PWC-20)” value in the data set on adults with MDD [3] (after discontinuation) is “No increases from baseline; also recorded: No signals for an evidence of withdrawal symptoms”. For the same compound, the “suicidal ideation/behavior signals vs baseline (C-SSRS)” value in the data set with adults with MDD [4] was “No increases from baseline; also recorded: No signals for an increased suicidal ideation or suicidal behavior”. In the data set with adults with MDD [5] (ADT continuation period), the “Sexual Dysfunction TEAE, incidence” value was determined as 0.9%; the “Sleep Disorders TEAE, incidence” value is 3.8%; the “TEAEs during the ADT continuation period, incidence” value was determined as 31.6%. Further, in the data set with adults with MDD [5] (setting [6]), the “Sexual Dysfunction TEAE, number of patients” value stood at 2; the “Sleep Disorders TEAE, number of patients” value amounted to 8; the “TEAEs during the ADT continuation period, number of patients” value worked out at 67. Further, in the data set on adults with MDD [5] (comparison with placebo+ADT), the “incidence of gastrointestinal AEs (e.g., nausea, diarrhea) vs placebo+ADT” value was “lower incidence”. For the same compound, in the data set on adults with MDD [5] (setting [7]), the “Sexual Dysfunction TEAE, incidence” value is 3.8% and the “Sleep Disorders TEAE, incidence” value amounted to 9.9%. Further, in the data set with adults with MDD [5] (setting [8]), the “Sexual Dysfunction TEAE, number of patients” value is 8 and the “Sleep Disorders TEAE, number of patients” value stood at 21. The “TEAEs during the double-blind treatment period, incidence” value with adults with MDD [5] (double-blind treatment period) was found to be 68.4%. Moreover, in the data set on adults with MDD [5] (double-blind treatment period, of 212), the “TEAEs during the double-blind treatment period, number of patients” value is given as 145. Moreover, in the data set on adults with MDD [5] (safety set n=212), the “Decreased Appetite TEAE, incidence” value is “(5.7%)”; the “Decreased Appetite TEAE, number of patients” value is given as 12; the “Diarrhea TEAE, incidence” value is listed as “(6.1%)”; the “Diarrhea TEAE, number of patients” value is given as 13. Further, in the data set with adults with MDD [5] (safety set n=212), the “Dizziness TEAE, number of patients” value is 28; the “Dose reduction due to TEAE, incidence” value was “(9.4%)”; the “Dose reduction due to TEAE, number of patients” value amounted to 20; the “Dry Mouth TEAE, incidence” value is on record as “(9.4%)”. In addition, in the data set on adults with MDD [5] (safety set n=212), the “Dry Mouth TEAE, number of patients” value was determined as 20; the “Fatigue TEAE, incidence” value is listed as “(8.5%)”; the “Fatigue TEAE, number of patients” value turned out to be 18; the “Headache TEAE, number of patients” value is 25. Moreover, in the data set on adults with MDD [5] (safety set n=212), the “Insomnia TEAE, incidence” value is recorded as “(9.9%)”; the “Insomnia TEAE, number of patients” value amounted to 21; the “Nausea TEAE, number of patients” value is recorded as 19; the “Sedation TEAE, incidence” value was “(5.7%)”. Also, in the data set with adults with MDD [5] (safety set n=212), the “Sedation TEAE, number of patients” value came to 12; the “Serious AEs, incidence” value is recorded as “(0.9%)^c”; the “Serious AEs, number of patients” value is on record as 2; the “Somnolence TEAE, number of patients” value is reported as 39. Further, in the data set with adults with MDD [5] (safety set n=212), the “Study withdrawal due to TEAE, incidence” value is reported as “(5.2%)”; the “Study withdrawal due to TEAE, number of patients” value is 11; the “TEAE maximum severity Mild, incidence” value is “(35.8%)”; the “TEAE maximum severity Mild, number of patients” value came out at 76. For the same compound, in the data set with adults with MDD [5] (safety set n=212), the “TEAE maximum severity Moderate, incidence” value was “(34.4%)”; the “TEAE maximum severity Moderate, number of patients” value worked out at 73; the “TEAE maximum severity Severe, incidence” value is “(3.8%)”; the “TEAE maximum severity Severe, number of patients” value is on record as 8. In the data set on adults with MDD [5] (safety set n=212), the “Treatment discontinuation due to TEAE, incidence” value is on record as “(6.6%)”; the “Treatment discontinuation due to TEAE, number of patients” value came out at 14; the “Tremor TEAE, incidence” value is reported as “(5.2%)”; the “Tremor TEAE, number of patients” value was determined as 11. Also, in the data set with adults with MDD [5] (setting [9]), the “Dizziness TEAE, incidence” value amounted to 13.2%; the “Headache TEAE, incidence” value was found to be 14.7%; the “Nausea TEAE, incidence” value is 9.0%; the “Serious AEs, incidence” value stood at 0.9%. In addition, in the data set with adults with MDD [5] (setting [9]), the “Serious AEs, number of patients” value is on record as “Two” and the “Somnolence TEAE, incidence” value worked out at 18.4%. In the data set on adults with MDD [5] (whole study), the “Gastrointestinal disorder TEAE, incidence” value turned out to be 29.7%; the “Sexual Dysfunction TEAE, incidence” value worked out at 4.7%; the “Sleep Disorders TEAE, incidence” value came to 12.7%. In the data set with adults with MDD [5] (whole study, of 212), the “Gastrointestinal disorder TEAE, number of patients” value came to 63; the “Sexual Dysfunction TEAE, number of patients” value is listed as 10; the “Sleep Disorders TEAE, number of patients” value turned out to be 27. For the same compound, in the data set with adults with MDD [5] (setting [10]), the “Any TEAE, incidence” value is “(74.1%)” and the “Any TEAE, number of patients” value is 157. In addition, the “Any TEAE, incidence” value in the data set with adults with MDD [5] (zuranolone 50 mg + ADT, safety set n=212, whole study, listed as zuranolone+ADT) turned out to be 74.1%. Further, the tolerability result in the data set with adults with MDD [5] is listed as “generally well-tolerated”. Also, the tolerability result in the data set with adults with MDD [5] (listed as zuranolone co-initiated with an SOC ADT) is listed as “generally well tolerated”.
